In test [1] the test system is SM-Hep (hepatocytes derived from hESCs using small molecules). The test is described as follows: Cell viability assay (MTT) of small molecule-derived hepatocytes after 24 hours drug treatment. Type of test: cell-based. The following applies: Homo sapiens, Hepatocyte, read-out: IC50 SM-Hep. How it is done: (§1) The differentiation was initiated when hESCs reached a confluence level of approximately 80%. […] Briefly, basal differentiation medium was composed of 60% DMEM-low glucose (Gibco, Carlsbad, Calif., USA), 40% MCDB-201-water (Sigma), 0.25× Linoleic acid—Bovine serum albumin (LA-BSA) (Sigma), 0.25× Insulin-transferrin-selenium (ITS) (Sigma), 100 U/mL Penicillin and 100 μg/mL Streptomycin (Cellgro), 0.1 mM L-Ascorbic Acid (Sigma), 1 μM Dexamethasone (Sigma) and 110 μM 2-mercaptoethanol (Gibco).
(§2) Cell viability of differentiated hepatocytes was measured 24 hours after treatment with drugs using CellTiter 96® Non-Radioactive Cell Proliferation Assay (MTT) (Promega, Madison, Wis., USA) according to manufacturer's instructions. The following drugs were used for the cell viability assays: Acetaminophen, Diclofenac, Digoxin, Chlorpromazine, Troglitazone and Quinidine (all drugs from Sigma). Stock solutions of drugs were prepared in DMSO and then diluted in media to obtain desired working concentrations. Controls were treated with DMSO alone (in absence of test compounds) and considered as 100% viability value.
(§3) One of the major applications of hepatocytes is toxicity screening in order to aid drug development and discovery. Researchers have tried to predict drug-induced cytotoxicity in vitro using HepG2, HepaRG primary human hepatocyte (PH) as well as hESC/hiPSC-derived hepatocyte like cells. Although primary human hepatocyte (PH) are considered the gold standard for drug metabolism and toxicity in vitro, cells lines such as HepG2 and HepaRG are less expensive than primary human hepatocyte (PH) and reproducible experiments are easier to perform than they are with primary human hepatocyte (PHs). However, 30% of the compounds were incorrectly classified as nontoxic. To overcome these problems, it would be highly advantageous if hESC/hiPSC derived hepatocytes could be used to predict drug-induced toxicity. To examine its applicability to drug screening, small molecule-derived hepatocytes (SM-Hep) were treated with various drugs that cause hepatotoxicity. Cell viability, assessed using MTT assay, was compared to growth factor-derived hepatoctyes (GF-Hep) as well as primary human hepatocyte (PH). The susceptibility of small molecule-derived hepatocytes (SM-Hep) to all the drugs tested was similar to that of the growth factor-derived hepatoctyes (GF-Hep) (FIG. 6).

The subject of test [2] is primary human hepatocytes (PH, PHHs). The test is described as follows: Cell viability assay (MTT) of primary human hepatocytes after 24 hours drug treatment. Type of test: cell-based. The following applies: Hepatocyte, read-out: IC50 PH. How it is done: Cryopreserved PHHs were obtained from Life Technologies (Carlsbad, Calif., USA) and BD Biosciences (Franklin Lakes, N.J., USA). The cells were thawed in a 37° C. water bath and resuspended in pre-warmed InVitroGRO HT Thawing Medium (Celsis, In Vitro Technologies, Baltimore, Md., USA). The cells were centrifuged at 800 rpm at 4° C. and the cell pellet was resuspended in InVitroGRO CP Plating Medium (containing 0.02% Torpedo Antibiotic Mix). Cells were counted and 50,000 cells were plated into each well of 96-well plates (Nunc, Naperville, Ill., USA) pre-coated with neutralized 1.5 mg/ml PureCol® Bovine Collagen solution, Type 1 (Advanced Biomatrix, San Diego, Calif., USA). After allowing for cell attachment for 4 hours, the media was changed to William's media E (Sigma-Aldrich, Singapore), supplemented with 1 mg/ml bovine serum albumin (Sigma), 1× insulin-transferrin-selenium and 1×MEM non-essential amino acids (Gibco, Carlsbad, Calif., USA), 100 nM dexamethasone (Sigma), 0.3 mg/ml L-glutamine (Lonza, Basel, Switzerland), 100 U/ml penicillin and 100 μg/ml streptomycin (Cellgro, Manassas, Va.). Culture medium was changed daily. Three different lots of hepatocytes were used for the experiments. All assays were performed after 2 days of culture.
as §2, §3

In test [3] the test system is GF-Hep (hepatocytes derived from hESCs using growth factors). The test is described as follows: Cell viability assay (MTT) of growth factor-derived hepatocytes after 24 hours drug treatment. Type of test: cell-based. The following applies: Homo sapiens, Hepatocyte, read-out: IC50 GF-Hep. The method, then: as §1, §2, §3
Test [4] concerns hESCs (H9). The test is described as follows: qPCR of pluripotency and definitive endoderm markers in hESCs treated for 6 days. Type of test: cell-based, human. To be noted: among small molecule combinations. The method, then: hESC cell line, H9 (WiCell Research Institute, Madison, Wis.) was cultured and propagated on tissue culture plates coated with matrigel (BD Biosciences, San Jose, Calif., USA) in mTeSRTM 1 media (Stem Cell Technologies, Vancouver, BC, Canada). Cultures were passaged at intervals of 5-7 days by incubation with 1 mg/ml dispase (Stem Cell Technologies) for 5 minutes at 37° C. Colonies were picked under microscopic guidance and replated at 1:3 to 1:6 split ratios. […] (20 ng/ml). […] In human embryonic stem cells (hESCs), manipulations of Nodal and Wnt signaling have been exploited to direct differentiation towards definitive endoderm (DE). […] Therefore, to induce differentiation of HESCs into definitive endoderm using small molecules, the present study analyzed effects of compounds which could substitute for Activin A or/and Wnt signaling. […] Cells were cultured in the presence of diverse combinations of these three compounds for 6 days, and expression of pluripotency marker (OCT4) and definitive endoderm markers (SOX17 and FoxA2) were analyzed using qPCR. […] The expression of pluripotency markers (OCT4, Nanog and SOX2) and definitive endoderm (DE) markers (SOX17 and FOXA2) were analyzed using qPCR. […]
In general terms: In qPCR the cycle at which signal appears reflects the starting amount.

[5] abbreviates: Table 1 (initial results), cell viability, 24 hours treatment.
Where [6] appears, read: Table 2 (updated results), cell viability, 24 hours treatment, PHHs.

Read-outs that look alike come from different tables or passages of the source.

Experimental findings from US10323228B2, “Differentiation of hepatocyte-like cells from stem cells” (Agency for Science, Technology and Research, priority 2014, dated 2019) are described below.

As to `CC(=O)Nc1ccc(O)cc1` [Acetaminophen], the IC50 in test [1] (setting [5]) was determined as 38100 µM; in test [2] (setting [5]) it was 45200 µM; in test [2] (setting [6]), 45200 µM; in test [3] (setting [5]), 46000 µM.

`CN(C)CCCN1c2ccccc2Sc2ccc(Cl)cc21` [Chlorpromazine]: the IC50 in test [1] (setting [5]) came out at 66.9 µM; in test [2] (setting [5]), 71.8 µM; in test [2] (setting [6]) it was 71.8 µM; in test [3] (setting [5]), 61.3 µM.

As to `O=C(O)Cc1ccccc1Nc1c(Cl)cccc1Cl` [Diclofenac], the 50% inhibitory concentration (IC50) in test [1] (setting [5]) amounted to 1930 µM; in test [2] (setting [5]), 3590 µM; in test [2] (setting [6]), 3590 µM; in test [3] (setting [5]) it was 1860 µM.

Take `C[C@H]1O[C@@H](O[C@H]2[C@@H](O)C[C@H](O[C@H]3[C@@H](O)C[C@H](O[C@H]4CC[C@@]5(C)[C@H](CC[C@@H]6[C@@H]5C[C@@H](O)[C@]5(C)[C@@H](C7=CC(=O)OC7)CC[C@]65O)C4)O[C@@H]3C)O[C@@H]2C)C[C@H](O)[C@@H]1O` [Digoxin]: the IC50 amounted to 0.36 µM in test [1] (24 h), 0.34 µM in test [2] and 0.25 µM in test [3] (24 h).

For the compound `O=C(O)CCCCCC(=O)NN=C1CCCC1` [IDE-2], in test [4], the FOXA2 expression entry is “highest FOXA2 expression” and the SOX17 expression result is “no SOX17 expression was detected”.

In the case of `C=C[C@H]1C[N@@]2CC[C@H]1C[C@@H]2[C@@H](O)c1ccnc2ccc(OC)cc12` [Quinidine], the half-maximal inhibitory concentration (IC50) in test [1] (setting [5]) is 728 µM; in test [2] (setting [5]), 198 µM; in test [2] (setting [6]), 563 µM; in test [3] (setting [5]), 538 µM.

Regarding `Cc1c(C)c2c(c(C)c1O)CCC(C)(COc1ccc(CC3SC(=O)NC3=O)cc1)O2` (stereo not shown) [Troglitazone], the IC50 in test [1] (setting [5]) came to 31.9 µM; in test [2] (setting [5]), 85 µM; in test [2] (setting [6]), 29.7 µM; in test [3] (setting [5]) it was 33.7 µM.

The IC50 is the concentration needed to halve the response being measured.
